Reference: ChEMBL document CHEMBL4229539, “Characterization of crystal water molecules in a high-affinity inhibitor and hematopoietic prostaglandin D synthase complex by interaction energy studies” (Bioorg Med Chem, 2018)

Target: Hematopoietic prostaglandin D synthase (Homo sapiens, UniProt O60760)
Test: Binding affinity to full length recombinant human N-terminal His6-tagged H-PGDS expressed in Escherichia coli BL21(DE3) by SPR analysis

Chain of Hematopoietic prostaglandin D synthase (O60760 whole entry): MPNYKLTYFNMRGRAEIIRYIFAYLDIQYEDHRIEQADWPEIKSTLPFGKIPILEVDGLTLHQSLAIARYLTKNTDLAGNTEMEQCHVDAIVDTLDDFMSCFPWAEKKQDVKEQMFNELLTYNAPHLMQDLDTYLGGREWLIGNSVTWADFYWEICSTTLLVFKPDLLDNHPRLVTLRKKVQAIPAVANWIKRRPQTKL

Question: `O=C(Nc1ccc(N2CCC(C(=O)N3CCOCC3)CC2)cc1)c1cnc(Oc2ccccc2)nc1` was tested. Which Kd did it give?
Answer: The Kd was 0.37 nM.

Question: For `O=C(Nc1ccc(N2CCCC2=O)cc1)c1cnc(-c2ccccn2)nc1`, which Kd is on record?
Answer: The Kd was 0.14 nM.
